Experiments:
[1] = Stability of an E-type prostaglandin in propylene glycol dicaprylate/dicaprate (Captex 200) on storage; assay type: physicochemical; details: for % Remaining of Initial Drug Concentration: 0.25 mg/ml in Captex 200, sealed glass ampules
Procedure: A solution of 0.25 mg (dl)-9-keto-11α,15α-dihydroxy-16-phenoxy-17,18,19,20-tetranorprosta-4,5,13-trans-trienoic acid methyl ester per ml in propylene glycol dicaprylate/dicaprate (Captex 200) was made by dissolving said compound in the solvent with the aid of a magnetic stirrer. Aliquots of this solution were filled into glass ampules and sealed. The ampules were then stored at various temperatures for various durations.

[2] = Stability in peanut oil, USP on storage (comparison); assay type: physicochemical; details: 2 weeks storage at 60° C., 50 mcg per ml peanut oil, 20160 min

% Remaining of Initial Drug Concentration ([1]; 0 month, 45° C.): 100% | % Remaining of Initial Drug Concentration ([1]; 0 month, 60° C.): 100% | % Remaining of Initial Drug Concentration ([1]; 1 month, 60° C., 43800 min): 97.6% | % Remaining of Initial Drug Concentration ([1]; 3 months, 45° C., 131400 min): 100.7% | % Remaining of Initial Drug Concentration ([1]; 3 months, 60° C., 131400 min): 90.0% | stability in Captex 200 (in words) ([1]; storage at 45° C. and 60° C., 0.25 mg/ml in Captex 200): quite stable | drug remaining [2]: 77.8%
Structure (SMILES): COC(=O)CCC=C=CCC1C(=O)CC(O)C1C=CC(O)COc1ccccc1 (stereo not drawn) [(dl)-9-keto-11α,15α-dihydroxy-16-phenoxy-17,18,19,20-tetranorprosta-4,5,13-trans-trienoic acid methyl ester]

Reference: US4409239A, “Propylene glycol diester solutions of PGE-type compounds” (Syntex (U.S.A.) Inc., priority 1982, dated 1983)
